The values below come from patent US20230060425A1, “FUSED BICYCLIC HETEROCYCLE DERIVATIVES AS PESTICIDES” (Bayer Aktiengesellschaft, priority 2019, published 2023).

Where two headings read alike, the source gives them in different places.

What all share (type): in vivo
In one assay the test system is Boophilus microplus. The assay can be described thus: Boophilus microplus injection test. To be noted: application rate 20 μg/animal, after 7 days, laying of fertile eggs. The method, then:
Boophilus microplus—Injection Test
(§1) Solvent: Dimethyl sulfoxide
To produce a suitable active compound formulation, 10 mg of active compound are mixed with 0.5 ml of solvent and the concentrate is diluted to the desired concentration with solvent.
1 μl of the active compound solution is injected into the abdomen of 5 engorged adult female cattle ticks (Boophilus microplus). The animals are transferred into dishes and kept in a climate-controlled room.
Efficacy is assessed after 7 days by laying of fertile eggs. Eggs which are not visibly fertile are stored in a climate-controlled cabinet until the larvae hatch after about 42 days. An efficacy of 100% means that none of the ticks has laid any fertile eggs; 0% means that all the eggs are fertile.

Another assay relates to Ctenocephalides felis. Kind of assay: Ctenocephalides felis oral test. Conditions: 48 h, application rate 100 ppm, in citrated cattle blood, after 2 days, read-out: efficacy (kill in %). The method, then: Ctenocephalides felis—Oral Test
as §1
To produce a suitable active compound formulation, 10 mg of active compound are mixed with 0.5 ml of dimethyl sulfoxide. Dilution with citrated cattle blood gives the desired concentration.
About 20 unfed adult cat fleas (Ctenocephalides felis) are placed into a chamber which is closed at the top and bottom with gauze. A metal cylinder whose bottom end is closed with parafilm is placed onto the chamber. The cylinder contains the blood/active compound formulation, which can be imbibed by the fleas through the parafilm membrane.
After 2 days, the kill in % is determined. 100% means that all of the fleas have been killed; 0% means that none of the fleas have been killed.

The test system of another assay is Lucilia cuprina. Kind of assay: Lucilia cuprina test. To be noted: application rate 100 ppm; L1 larvae; after 2 days. The method, then: as §1
To produce a suitable active compound formulation, 10 mg of active compound are mixed with 0.5 ml of dimethyl sulfoxide, and the concentrate is diluted with water to the desired concentration.
About 20 L1 larvae of the Australian sheep blowfly (Lucilia cuprina) are transferred into a test vessel containing minced horsemeat and the active compound formulation of the desired concentration.
After 2 days, the kill in % is determined. 100% means that all the larvae have been killed; 0% means that no larvae have been killed.

Assay [1] deals with Myzus persicae. The assay can be described thus: Myzus persicae oral test. Conditions: 120 h, application rate 4 ppm, after 5 days, read-out: efficacy. The procedure, abridged: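 Aphid feeding test: compound dissolved in acetone, diluted with water and mixed with IPL41 insect medium plus sugar, offered through parafilm to a mixed population of green peach aphids. Mortality scored after 5 days as % efficacy (100% = all aphids dead, 0% = none dead).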

The test system of assay [2] is Myzus persicae. The assay can be described thus: Myzus persicae spray test. Conditions: foliar, 120 h, application rate 100 g/ha, Chinese cabbage leaf discs, after 5 days, read-out: efficacy. In outline: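 Chinese cabbage leaf discs infested with all stages of Myzus persicae were sprayed with compound in acetone/DMF, diluted in water containing 1000 ppm emulsifier. Efficacy in % assessed after 5 days: 100% all aphids killed, 0% none killed.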

The subject of assay [3] is Phaedon cochleariae. The assay can be described thus: Phaedon cochleariae spray test. To be noted: foliar, 168 h, application rate 100 g/ha, Chinese cabbage leaf discs, after 7 days, read-out: efficacy. As to the method: Phaedon cochleariae—Spray Test
(§2) Solvent: • 78.0 parts by weight of acetone • 1.5 parts by weight of dimethylformamide
(§3) Emulsifier: alkylaryl polyglycol ether
(§4) To produce a suitable active compound preparation, 1 part by weight of active compound is dissolved using the stated parts by weight of solvent and made up with water containing an emulsifier concentration of 1000 ppm until the desired concentration is attained. To produce further test concentrations, the formulation is diluted with emulsifier-containing water.
Discs of Chinese cabbage leaves (Brassica pekinensis) are sprayed with an active compound formulation of the desired concentration and, after drying, populated with larvae of the mustard beetle (Phaedon cochleariae).
After 7 days, the efficacy in % is determined. 100% means that all the beetle larvae have been killed; 0% means that no beetle larvae have been killed.

The subject of assay [4] is Spodoptera frugiperda. Kind of assay: Spodoptera frugiperda spray test. To be noted: foliar, 168 h, application rate 100 g/ha, maize leaf discs, after 7 days, read-out: efficacy. The method, then:
Spodoptera frugiperda—Spray Test
as §2, §3
To produce further test concentrations, the formulation is diluted with emulsifier-containing water.
After 7 days, the efficacy in % is determined. 100% means that all the caterpillars have been killed; 0% means that no caterpillar has been killed.

Assay [5] concerns Spodoptera frugiperda. The assay can be described thus: Spodoptera frugiperda test on maize plants (SPODFR S). Conditions: 6 dai, read-out: % Efficacy. As to the method: Spodoptera frugiperda Test (SPODFR S)
(§5) Solvent: 14 parts by weight of dimethylformamide
(§6) Emulsifier: 2 parts by weight of alkylaryl polyglycol ether
(§7) To produce a suitable active compound formulation, 1 part by weight of active compound is dissolved with the stated parts by weight of solvent and emulsifier and made up to the desired concentration with water. To produce further test concentrations, water is used for dilution. In the event that addition of ammonium salts or/and penetrants (rapeseed oil methyl ester) is required, these are each pipetted in at a concentration of 1000 ppm after the finished formulation solution has been diluted.
Maize plants (Zea mays) are sprayed with an active compound formulation of the desired concentration and, in each case after 5, 12 and 19 days, populated with 5 caterpillars (L2) of the fall armyworm (Spodoptera frugiperda).
(§8) The kill is determined 6 days after the infection. 100% means that all the caterpillars have been killed and 0% means that none of the caterpillars have been killed.

The test system of the next assay is Plutella xylostella. The assay can be described thus: Plutella xylostella test (PLUTMA S). Conditions: 456 h, infection 19 dat, 6 dai, read-out: % Efficacy. As to the method:
Plutella xylostella Test (PLUTMA S)
as §5, §6, §7
Cabbage plants (Brassica oleracea var. sabauda) are sprayed with an active compound formulation of the desired concentration and, after 19 days, populated with 10 caterpillars (L2 larvae) of the diamond back moth (Plutella xylostella).
as §8

Assay [6] has as its system Myzus persicae. The assay can be described thus: Myzus persicae spray test (MYZUPE), comparative. To be noted: 120 h, 5 dat, read-out: % Efficacy. As to the method:
Myzus persicae—Spray Test (MYZUPE)
as §2, §3, §4
Discs of Chinese cabbage leaves (Brassica pekinensis) infested by all stages of the green peach aphid (Myzus persicae) are sprayed with an active compound preparation of the desired concentration.
(§9) After the desired period of time, the efficacy in % is determined. 100% means that all the aphids have been killed; 0% means that no aphids have been killed.

In assay [7] the test system is Spodoptera frugiperda. The assay can be described thus: Spodoptera frugiperda spray test (SPODFR), comparative. Conditions: 168 h, 0.8 g of ai/ha, 7 dat, read-out: % Efficacy. The method, then: Spodoptera frugiperda—Spray Test (SPODFR)
as §2, §3, §4
Leaf discs of maize (Zea mays) are sprayed with an active compound formulation of the desired concentration and, after drying, populated with caterpillars of the armyworm (Spodoptera frugiperda).
After the desired period of time, the efficacy in % is determined. 100% means that all the caterpillars have been killed; 0% means that no caterpillar has been killed.

Assay [8] concerns Myzus persicae. Kind of assay: Myzus persicae spray test on bell pepper plants (MYZUPE S). Conditions: 144 h, 6 dat, read-out: % Efficacy. As to the method:
Myzus persicae—Spray Test (MYZUPE S)
as §5, §3
(§10) To produce a suitable active compound preparation, 1 part by weight of active compound is dissolved using the stated parts by weight of solvent and made up with water containing an emulsifier concentration of 1000 ppm until the desired concentration is attained. To produce further test concentrations, the formulation is diluted with emulsifier-containing water. If the addition of ammonium salts or/and penetrants is required, these are each added in a concentration of 1000 ppm to the formulation solution.
Bell pepper plants (Capsicum annuum) severely infested with the green peach aphid (Myzus persicae) are treated by spraying with the active compound formulation in the desired concentration.
After the desired time, the kill in % is determined. 100% means that all the animals have been killed; 0% means that no animals have been killed.

For assay [9], the system named is Myzus persicae. Kind of assay: Myzus persicae drench test (MYZUPE D). Conditions: soil, 240 h, 10 dat, read-out: % Efficacy. The method, then:
Myzus persicae—Drench Test (MYZUPE D)
Solvent: 7 parts by weight of dimethylformamide
Emulsifier: 2 part by weight of alkylaryl polyglycol ether
To produce a suitable active compound preparation, 1 part by weight of active compound is mixed with the specified amounts of solvent and emulsifier, and the concentrate is diluted with water to the desired concentration, it being necessary to include the volume of soil which is drenched in the calculation. It should be ensured that a concentration of 40 ppm of emulsifier in the soil is not exceeded. To produce further test concentrations, water is used for dilution.
Savoy cabbage (Brassica oleracea) in pots with soil and infested by all stages of the green peach aphid (Myzus persicae) is watered with an active compound preparation of the desired concentration.
as §9

For a further assay, the system named is Aphis gossypii. The assay can be described thus: Aphis gossypii spray test (APHIGO S). Conditions: 144 h, 6 dat, read-out: % Efficacy. As to the method: Aphis gossypii—Spray Test (APHIGO S)
as §5, §3, §10
Cotton plants (Gossypium hirsutum) heavily infested by the cotton aphid (Aphis gossypii) are sprayed with an active compound formulation of the desired concentration.
After the desired time, the kill in % is determined. 100% means that all the aphids have been killed; 0% means that no aphids have been killed.

Another assay relates to Heliothis armigera. Kind of assay: Heliothis armigera test (HELIAR S). Conditions: Helicoverpa armigera, 6 dai, read-out: % Efficacy. The method, then: Heliothis armigera Test (HELIAR S)
as §5, §6, §7
Cotton plants (Gossypium hirsutum) are sprayed with an active compound formulation of the desired concentration and, in each case after 12 and 19 days, populated with 5 caterpillars (L2) of the cotton bollworm (Heliothis armigera).
as §8

The test system of assay [10] is Phaedon cochleariae. The assay can be described thus: Phaedon cochleariae test on cabbage plants (PHAECO S). To be noted: 6 dai, read-out: % Efficacy. The method, then:
Phaedon cochleariae Test (PHAECO S)
as §5, §6, §7
Cabbage plants (Brassica oleracea var. sabauda) are sprayed with an active compound formulation of the desired concentration and populated with 10 L2 larvae of the mustard beetle (Phaedon cochleariae).
After the desired time, the kill in % is determined. 100% means that all the larvae have been killed and 0% means that none of the larvae have been killed.

Consider `CCS(=O)(=O)c1c(-c2nc3cc(C(F)(F)F)cnc3n2C)ncc2cc(Cl)ccc12` [Example I-010], for which the efficacy in the assay with Boophilus microplus was determined as 80%. The pest or weed control at 100 ppm in the assay with Ctenocephalides felis came out at 100%. Besides, the “efficacy (kill in %)” value in the assay with Lucilia cuprina is listed as 100%. Also, in the assay with Myzus persicae [1], the pest or weed control at 4 ppm turned out to be 100%. The pest or weed control at 100 g/ha in the assay on Myzus persicae [2], with Phaedon cochleariae [3] and with Spodoptera frugiperda [4] was 100% throughout.
As to `CCS(=O)(=O)c1c(-c2nc3cc(C(F)(F)F)cnc3n2C)ncc2cc(OCC(F)(F)F)ccc12` [Example I-036], the pest or weed control at 4 ppm in the assay on Myzus persicae [1] was determined as 100%. Besides, the pest or weed control at 100 g/ha in the assay on Spodoptera frugiperda [4] is 100%. Moreover, the Emax at 0.16 ppm in the assay with Spodoptera frugiperda [5] (120 h, infection 5 dat) is 90%; with Spodoptera frugiperda [5] (456 h, infection 19 dat) it was 70%; in the assay with Plutella xylostella, 80%. In addition, in the assay with Spodoptera frugiperda [5] (456 h, infection 19 dat), the Emax at 0.8 ppm worked out at 100%.
`CCS(=O)(=O)c1c(-c2nc3cc(C(F)(F)F)cnc3n2C)ncc2cc(C(F)(F)F)ccc12` [Example I-51, reference compound]: in the assay with Myzus persicae [6] (4 g of ai/ha), the Emax at 4 g/ha stood at 0%. The Emax at 20 g/ha in the assay on Myzus persicae [6] (20 g of ai/ha) is 0%. The Emax at 0.8 g/ha in the assay on Spodoptera frugiperda [7] amounted to 67%. Moreover, the Emax at 0.8 ppm in the assay with Myzus persicae [8] (0.8 ppm) stood at 0%; in the assay on Spodoptera frugiperda [5] (288 h, infection 12 dat), 80%; with Spodoptera frugiperda [5] (456 h, infection 19 dat), 60%; in the assay with Phaedon cochleariae [10] (288 h, 0.8 ppm, infection 12 dat), 40%. Also, the values for the Emax at 4 ppm in the assay on Myzus persicae [8] (4 ppm), in the assay on Myzus persicae [9] and in the assay on Aphis gossypii were 70%, 0% and 20%, respectively. Further, the Emax at 0.16 ppm was 20% with Spodoptera frugiperda [5] (120 h, infection 5 dat); 10% in the assay on Spodoptera frugiperda [5] (288 h, infection 12 dat); 30% with Spodoptera frugiperda [5] (456 h, infection 19 dat); 40% with Heliothis armigera (288 h, infection 12 dat); 20% in the assay on Heliothis armigera (456 h, infection 19 dat); 50% with Plutella xylostella. Further, the Emax at 0.16 ppm is 10% with Phaedon cochleariae [10] (120 h, infection 5 dat) and 0% with Phaedon cochleariae [10] (288 h, infection 12 dat).
